For 8 compounds, GI50 and TGI results are on record in PubChem BioAssay (NCI).

“And” between values parts separate entries of the source, which are not always exact repeats. Equal values may be shown once.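 A five-concentration, 48-hour dose response in 96-well plates underlies each endpoint, interpolated linearly between surrounding concentrations. GI50 marks 50% less growth. Definition used: TGI = concentration required for complete inhibition of growth.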 Some results are limits rather than exact numbers.

Some test systems named below: TK-10 renal; CCRF-CEM leukemia; NCI-H23 lung; UACC-62 melanoma; EKVX NSCLC; HOP-92 NSCLC; HCC-2998 colon; OVCAR-8 ovarian; NCI-H226 lung; ACHN renal.
What all share (test): NCI-60 cell line screen, 48 h

Turning to `O=[N+]([O-])c1ccc(-c2cc3c(Nc4ccc(Cl)c(C(F)(F)F)c4)ncnc3s2)cc1`, the GI50 was 3.56 µM with TK-10 renal; 1.29 µM in the assay with CCRF-CEM leukemia; 1.06 µM in the assay with NCI-H23 lung; 1.63 µM with UACC-62 melanoma; 2.61 µM in the assay with EKVX NSCLC; 0.963 µM with HOP-92 NSCLC. The GI50 was 2.02 µM with HCC-2998 colon, 2.67 µM in the assay on OVCAR-8 ovarian, 2.89 µM with NCI-H226 lung and 2.42 µM in the assay on ACHN renal. For the same compound, the TGI was over 100 µM with TK-10 renal; over 100 µM in the assay with CCRF-CEM leukemia; over 100 µM in the assay on NCI-H23 lung; over 100 µM in the assay with UACC-62 melanoma; over 100 µM in the assay on EKVX NSCLC; 4.95 µM in the assay with HOP-92 NSCLC. The TGI in the assay on HCC-2998 colon is over 100 µM; in the assay with OVCAR-8 ovarian it was over 100 µM; in the assay on NCI-H226 lung, over 100 µM; in the assay on ACHN renal, 7.6 µM.
Turning to `CC(C)[O-].CC(C)[O-].O=c1cccccc1[O-].O=c1cccccc1[O-].[Ti+4]`, the TGI with TK-10 renal was over 100 µM; in the assay with CCRF-CEM leukemia, over 100 µM; with NCI-H23 lung, over 100 µM; in the assay with UACC-62 melanoma, over 100 µM; with EKVX NSCLC, over 100 µM; in the assay with HOP-92 NSCLC, 90.8 µM. Also, the TGI in the assay with HCC-2998 colon, in the assay with OVCAR-8 ovarian, with NCI-H226 lung and with ACHN renal was over 100 µM each time.
As to `O=C(c1cccs1)C1NO[N+]([O-])=C1c1cccs1` (stereo not given), the GI50 in the assay on TK-10 renal was 2.45 µM; in the assay on CCRF-CEM leukemia, 1.23 µM; in the assay on NCI-H23 lung it was 2.94 µM; with UACC-62 melanoma, 12.1 µM; with EKVX NSCLC, 3.71 µM; with HOP-92 NSCLC it was 1.65 µM. Moreover, the GI50 in the assay with HCC-2998 colon is 17.2 µM; with OVCAR-8 ovarian, 2.9 µM; in the assay with NCI-H226 lung, 9.9 µM; with ACHN renal, 1.85 µM. Further, the TGI in the assay with TK-10 renal is 6.27 µM; in the assay with CCRF-CEM leukemia it was 3.54 µM; in the assay on NCI-H23 lung, 9.42 µM; in the assay on UACC-62 melanoma, 24.8 µM; in the assay with EKVX NSCLC, 10.9 µM; in the assay with HOP-92 NSCLC, 3.59 µM. The TGI in the assay with HCC-2998 colon was 31.7 µM; in the assay on OVCAR-8 ovarian, over 21.9 µM; in the assay on NCI-H226 lung, over 35.2 µM; with ACHN renal, 3.56 µM.
On to `CCn1c(-c2nonc2N)nc2ccncc21`, for which the GI50 in the assay with TK-10 renal, with CCRF-CEM leukemia, with NCI-H23 lung, in the assay with UACC-62 melanoma, in the assay on EKVX NSCLC and in the assay with HOP-92 NSCLC was over 25 µM each time. The GI50 with HCC-2998 colon, in the assay with OVCAR-8 ovarian, in the assay with NCI-H226 lung and with ACHN renal was over 25 µM in each case. Moreover, the TGI in the assay on TK-10 renal, in the assay on CCRF-CEM leukemia, with NCI-H23 lung, in the assay with UACC-62 melanoma, in the assay on EKVX NSCLC and in the assay on HOP-92 NSCLC was over 25 µM throughout. Besides, the TGI in the assay on HCC-2998 colon, in the assay on OVCAR-8 ovarian, with NCI-H226 lung and in the assay on ACHN renal was over 25 µM in each case.
As to `COc1cccc(COc2cc(-n3cnc4ccccc43)sc2C(N)=O)c1`, the GI50 in the assay on TK-10 renal is over 25 µM; with CCRF-CEM leukemia it was 1.15 µM; with NCI-H23 lung it was over 16.6 µM; in the assay on UACC-62 melanoma, 18.1 µM; in the assay on EKVX NSCLC, over 25 µM; in the assay with HOP-92 NSCLC it was over 5.9 µM. For the same compound, the GI50 in the assay with HCC-2998 colon was over 25 µM; in the assay with OVCAR-8 ovarian, 11.9 µM; in the assay on NCI-H226 lung, over 20.5 µM; in the assay with ACHN renal, over 25 µM. Besides, the TGI in the assay with TK-10 renal, in the assay with CCRF-CEM leukemia, in the assay with NCI-H23 lung, in the assay with UACC-62 melanoma, in the assay on EKVX NSCLC and in the assay on HOP-92 NSCLC was over 25 µM in each case. The TGI in the assay with HCC-2998 colon, with OVCAR-8 ovarian, in the assay on NCI-H226 lung and in the assay on ACHN renal was over 25 µM throughout.
Take `O=C1/C(=C/c2ccc([N+](=O)[O-])cc2)COc2ccc(O)cc21`: the GI50 is 26.2 µM in the assay with TK-10 renal; 0.647 µM in the assay with CCRF-CEM leukemia; 7.83 µM in the assay with NCI-H23 lung; 9.02 µM in the assay on UACC-62 melanoma; 42.7 µM in the assay on EKVX NSCLC; 38.6 µM in the assay with HOP-92 NSCLC. Moreover, the GI50 in the assay with HCC-2998 colon is 1.74 µM; in the assay on OVCAR-8 ovarian it was 5.88 µM; in the assay with NCI-H226 lung it was 15.3 µM; with ACHN renal, 2.02 µM. The TGI in the assay with TK-10 renal was over 100 µM; with CCRF-CEM leukemia, 3.29 µM; in the assay with NCI-H23 lung it was 36.3 µM; with UACC-62 melanoma it was 34.5 µM; in the assay on EKVX NSCLC, over 100 µM; with HOP-92 NSCLC it was over 100 µM. Moreover, the TGI in the assay on HCC-2998 colon was 3.21 µM; in the assay with OVCAR-8 ovarian it was over 100 µM; with NCI-H226 lung, 72.4 µM; in the assay with ACHN renal, 4.12 µM.
Turning to `Cc1c(C)c(CC(=O)N2CC2)c(C)c(C)c1CC(=O)N1CC1`, the TGI with TK-10 renal was over 83 µM; with CCRF-CEM leukemia, over 48.8 µM; in the assay on NCI-H23 lung it was 39.4 µM; in the assay with UACC-62 melanoma it was 17.2 µM; with EKVX NSCLC it was 65.8 µM; in the assay on HOP-92 NSCLC, 44.9 µM. The TGI with HCC-2998 colon is 25.2 µM; with OVCAR-8 ovarian, over 49.6 µM; in the assay on NCI-H226 lung it was 43.6 µM; with ACHN renal it was 25.7 µM.
As to `Cc1ccc(-n2nc(C(C)(C)C)cc2NC(=O)NCc2cc(F)ccc2Oc2ccc3c(cnn3CCO)c2)cc1`, the GI50 was > 10 µM and 10.8 µM in the assay on TK-10 renal; > 10 µM and 3.38 µM in the assay on CCRF-CEM leukemia; 5.6 µM and 6.17 µM in the assay on NCI-H23 lung; 0.667 µM in the assay with UACC-62 melanoma; over 10 µM in the assay on EKVX NSCLC; 8.06 µM and 5.1 µM with HOP-92 NSCLC. Besides, the GI50 with HCC-2998 colon is > 10 µM and 5.39 µM; with OVCAR-8 ovarian, > 10 µM and 8.96 µM; in the assay with NCI-H226 lung, 0.562 µM and 2.75 µM; in the assay with ACHN renal, 4.3 µM and 2.79 µM. The TGI in the assay on TK-10 renal was over 91.9 µM; in the assay on CCRF-CEM leukemia it was over 69.7 µM; in the assay on NCI-H23 lung, over 85.3 µM; in the assay with UACC-62 melanoma, over 39.8 µM; with EKVX NSCLC it was over 10 µM; in the assay with HOP-92 NSCLC, > 10 µM and 95.2 µM. Further, the TGI was over 48.8 µM in the assay on HCC-2998 colon, over 100 µM in the assay on OVCAR-8 ovarian, over 100 µM in the assay with NCI-H226 lung and over 56.2 µM in the assay with ACHN renal.
